Assay results from patent US10517849B2, “LSD1 inhibitors and medical uses thereof” (Constellation Pharmaceuticals, Inc., priority 2016, dated 2019).
Counter-ions that a name gives are not always drawn.

Columns and labels:
Kasumi-1 = Kasumi-1 GI50 Assay; assay type: cell-based; conditions: Homo sapiens, 288 h; Kasumi-1 cells, 12 days, Cell Titer-Glo viability
Method: Cells were plated at 5,000 cells per well in 96 well tissue culture dishes containing tool compounds arrayed in a 10-point dose curve, ranging from […] with 4-fold dilutions, and split every fourth day at a fixed ratio to re-establish 5,000 cells/well density for DMSO-treated controls. Cell treatments were carried out for a total of 12 days. At each 4-day split, the viable cell numbers were determined using the Cell Titer-Glo luminescent cell viability assay (Promega, Madison, Wis. USA) using an EnVision® Multilabel Plate Reader (Perkin Elmer, Waltham, Mass. USA). GraphPad Prism 6 (GraphPad Software, Inc., La Jolla, Calif. USA) was used for curve fitting and determination of GI50 values.

LSD1 = LSD1 (Homo sapiens (Human), UniProt O60341); experiment: LSD1 TR-FRET Assay; assay type: biochemical; conditions: biotinylated H3K4me1 peptide 4 μM, 10 nM LSD1, 40 nM FAD, 50 minutes at room temperature
Method: LSD1 demethylase reactions were carried out in 50 mM HEPES pH 7.4, 100 mM NaCl, 1 mM DTT, 0.01% Tween-20, and 0.1 mg/mL BSA. All enzymatic reactions were performed for 50 minutes at room temperature in a 10-μL volume. Five microliters of 8 μM biotinylated H3K4me1 peptide solution was added to each well of a black 384 well, clear-bottom assay plate containing 80 nL compound (final concentration of 0.8% DMSO and 4 μM substrate). Reactions were initiated by the addition of a mixture containing 20 nM LSD1 and 80 nM FAD (5 μL). LSD1 and FAD final concentrations were 10 and 40 nM, respectively. Enzyme activity was stopped by the addition of 90 μL of high salt buffer consisting of 50 mM HEPES pH 7.4, 500 mM NaCl, 1 mM DTT, 0.01% Tween-20, and 0.1 mg/mL BSA. Ten microliters of the quenched reaction mixtures were transferred to a black 384 well ProxiPlate. Ten microliters of detection mixture was added to the ProxiPlate, Europium-labeled antibody and Streptavidin APC were used at final concentrations of 0.3 nM and 200 nM, respectively (total assay volume of 20 μL). Capture of the product peptide by the anti-H3K4me0 antibody and Streptavidin APC was allowed to proceed for 60 min at room temperature before measuring the TR-FRET signal. Plates were read on a Perkin Elmer EnVision. Percent inhibition was calculated using Max (no inhibitor) and Min (quenched with stop buffer) controls and inhibition curves plotted to determine IC50 values.

[1] = tested on: LY-96 mRNA induction in MV4-11 cells; experiment: LSD1 LY96 Quantigene Assay; assay type: cell-based; conditions: Homo sapiens, 16 h, Quantigene 2.0
Method: MV4-11 cells were cultured at a density of 4×10^4 cells per well in a 96-well plates and treated with various doses inhibitor starting from 10 μM up to 0.0005 μM for 16 h. The LY-96 mRNA induction was quantified using the Quantigene 2.0 system (Affymetrix). The cells were lysed with Lysis Mixture containing Proteinase K. The working reagent for capturing the RNA was prepared according to the steps detailed in “Capturing Target RNA from Cultured Cell or Blood Lysates” in the Quantigene handbook. The subsequent hybridization with LY-96 probe, signal amplification and detection steps were performed as described in the manual. The chemiluminescence was read using Envision (PerkinElmer) and Abase (IDBS software) was used to plot the dose response curves and calculate IC50.

| SMILES | GI50 (Kasumi-1) [nM] | IC50 (LSD1) [nM] | EC50 [1] [nM] |
| --- | --- | --- | --- |
| CC/C(=C\c1ccccc1)[C@@H]1C[C@H]1NC1CC2(C1)CN(CCO)C2 [Compound 1, 2-(6-(((1R,2S)-2-((E)-1-phenylbut-1-en-2-yl)cyclopropyl)amino)-2-azaspiro[3.3]heptan-2-yl)ethanol] | < 100 | < 100 | < 100 |
| CC/C(=C\c1ccccc1)[C@@H]1C[C@H]1NC1CC2(C1)CN(C(CO)CO)C2 [Compound 2, 2-(6-(((1R,2S)-2-((E)-1-phenylbut-1-en-2-yl)cyclopropyl)amino)-2-azaspiro[3.3]heptan-2-yl)propane-1,3-diol] | < 100 | < 100 | < 100 |
| CC/C(=C\c1ccccc1)[C@@H]1C[C@H]1NC1CC2(C1)CN(CCNS(C)(=O)=O)C2 [Compound 4, N-(2-(6-(((1R,2S)-2-((E)-1-phenylbut-1-en-2-yl)cyclopropyl)amino)-2-azaspiro[3.3]heptan-2-yl)ethyl)methanesulfonamide bis(2,2,2-trifluoroacetate)] | < 100 | < 100 | < 100 |
| CC/C(=C\c1ccccc1)[C@@H]1C[C@H]1NC1CC2(C1)CN(CCNC(C)=O)C2 [Compound 5, N-(2-(6-(((1R,2S)-2-((E)-1-phenylbut-1-en-2-yl)cyclopropyl)amino)-2-azaspiro[3.3]heptan-2-yl)ethyl)acetamide bis(2,2,2-trifluoroacetate)] | < 100 |  | < 100 |
| CC/C(=C\c1ccccc1)[C@@H]1C[C@H]1NC1CC2(C1)CN(CCNS(=O)(=O)C1CC1)C2 [Compound 6, N-(2-(6-(((1R,2S)-2-((E)-1-phenylbut-1-en-2-yl)cyclopropyl)amino)-2-azaspiro[3.3]heptan-2-yl)ethyl)cyclopropanesulfonamide bis(2,2,2-trifluoroacetate)] | < 100 |  | < 100 |
| CC/C(=C\c1ccccc1)[C@@H]1C[C@H]1NC1CC2(C1)CN(CCNS(=O)(=O)CC)C2 [Compound 7, N-(2-(6-(((1R,2S)-2-((E)-1-phenylbut-1-en-2-yl)cyclopropyl)amino)-2-azaspiro[3.3]heptan-2-yl)ethyl)ethanesulfonamide bis(2,2,2-trifluoroacetate)] | < 100 |  | < 100 |
| CC/C(=C\c1ccccc1)[C@@H]1C[C@H]1NC1CC2(C1)CN(CCNS(=O)(=O)C(C)C)C2 [Compound 8, N-(2-(6-(((1R,2S)-2-((E)-1-phenylbut-1-en-2-yl)cyclopropyl)amino)-2-azaspiro[3.3]heptan-2-yl)ethyl)propane-2-sulfonamide bis(2,2,2-trifluoroacetate)] | < 100 |  | < 100 |
| CC/C(=C\c1ccccc1)[C@@H]1C[C@H]1NC1CC2(C1)CN(CCNS(=O)(=O)CCOC)C2 [Compound 9, 2-methoxy-N-(2-(6-(((1R,2S)-2-((E)-1-phenylbut-1-en-2-yl)cyclopropyl)amino)-2-azaspiro[3.3]heptan-2-yl)ethyl)ethanesulfonamide bis(2,2,2-trifluoroacetate)] | < 100 |  | < 100 |
| CC/C(=C\c1ccccc1)[C@@H]1C[C@H]1NC1CC2(CCN(C(CO)CO)CC2)C1 [Compound 10, 2-(2-(((1R,2S)-2-((E)-1-phenylbut-1-en-2-yl)cyclopropyl)amino)-7-azaspiro[3.5]nonan-7-yl)propane-1,3-diol bis(2,2,2-trifluoroacetate)] | < 100 |  | < 100 |
| CC/C(=C\c1ccccc1)[C@@H]1C[C@H]1NC1CC2(C1)CN(C(C)(C)C(N)=O)C2 [Compound 14, 2-methyl-2-(6-(((1R,2S)-2-((E)-1-phenylbut-1-en-2-yl)cyclopropyl)amino)-2-azaspiro[3.3]heptan-2-yl)propanamide bis(2,2,2-trifluoroacetate)] | < 100 |  | < 100 |
| CC/C(=C\c1ccccc1)[C@@H]1C[C@H]1NC1CC2(C1)CN(CC(C)(C)NS(C)(=O)=O)C2 [Compound 15, N-(2-methyl-1-(6-(((1R,2S)-2-((E)-1-phenylbut-1-en-2-yl)cyclopropyl)amino)-2-azaspiro[3.3]heptan-2-yl)propan-2-yl)methanesulfonamide bis(2,2,2-trifluoroacetate)] | < 100 |  | < 100 |
| CC/C(=C\c1ccccc1)[C@@H]1C[C@H]1NC1CC2(CCN(C[C@@H](C)O)CC2)C1 [Compound 16, (R)-1-(2-(((1R,2S)-2-((E)-1-phenylbut-1-en-2-yl)cyclopropyl)amino)-7-azaspiro[3.5]nonan-7-yl)propan-2-ol dihydrochloride] | < 100 |  | < 100 |
| CC/C(=C\c1ccccc1)[C@@H]1C[C@H]1NC1CC2(CCN(CC(C)(C)O)CC2)C1 [Compound 18, 2-methyl-1-(2-(((1R,2S)-2-((E)-1-phenylbut-1-en-2-yl)cyclopropyl)amino)-7-azaspiro[3.5]nonan-7-yl)propan-2-ol dihydrochloride] | < 100 |  | < 100 |
| CC/C(=C\c1ccccc1)[C@@H]1C[C@H]1NC1CC2(CCN(C[C@@H](O)CO)CC2)C1 [Compound 19, (R)-3-(2-(((1R,2S)-2-((E)-1-phenylbut-1-en-2-yl)cyclopropyl)amino)-7-azaspiro[3.5]nonan-7-yl)propane-1,2-diol dihydrochloride] | < 100 |  | < 100 |
| CC/C(=C\c1ccccc1)[C@@H]1C[C@H]1NC1CC2(CCN(C[C@H](O)CO)CC2)C1 [Compound 20, (S)-3-(2-(((1R,2S)-2-((E)-1-phenylbut-1-en-2-yl)cyclopropyl)amino)-7-azaspiro[3.5]nonan-7-yl)propane-1,2-diol dihydrochloride] | < 100 |  | < 100 |
| CC/C(=C\c1ccccc1)[C@@H]1C[C@H]1NC1CC2(CCN(CCC(N)=O)CC2)C1 [Compound 24, 3-(2-(((1R,2S)-2-((E)-1-phenylbut-1-en-2-yl)cyclopropyl)amino)-7-azaspiro[3.5]nonan-7-yl)propanamide dihydrochloride] | < 100 |  | < 100 |
| CC/C(=C\c1ccccc1)[C@@H]1C[C@H]1NC1CC2(C1)CN(CC(=O)NCCS(C)(=O)=O)C2 [Compound 26, N-(2-(methylsulfonyl)ethyl)-2-(6-(((1R,2S)-2-((E)-1-phenylbut-1-en-2-yl)cyclopropyl)amino)-2-azaspiro[3.3]heptan-2-yl)acetamide bis(2,2,2-trifluoroacetate)] | < 100 |  | < 100 |
| CC/C(=C\c1ccccc1)[C@@H]1C[C@H]1NC1CC2(C1)CN(CC(=O)NC(C)C)C2 [Compound 27, N-isopropyl-2-(6-(((1R,2S)-2-((E)-1-phenylbut-1-en-2-yl)cyclopropyl)amino)-2-azaspiro[3.3]heptan-2-yl)acetamide bis(2,2,2-trifluoroacetate)] | < 100 |  | < 100 |
| CC/C(=C\c1ccccc1)[C@@H]1C[C@H]1NC1CC2(C1)CN(CC(=O)N(C)C)C2 [Compound 28, N,N-dimethyl-2-(6-(((1R,2S )-2-((E)-1-phenylbut-1-en-2-yl)cyclopropyl)amino)-2-azaspiro[3.3]heptan-2-yl)acetamide bis(2,2,2-trifluoroacetate)] | < 100 |  | < 100 |
| CC/C(=C\c1ccccc1)[C@@H]1C[C@H]1NC1CC2(C1)CN(CC(=O)NS(C)(=O)=O)C2 [Compound 29, N-(methylsulfonyl)-2-(6-(((1R,2S)-2-((E)-1-phenylbut-1-en-2-yl)cyclopropyl)amino)-2-azaspiro[3.3]heptan-2-yl)acetamide bis(2,2,2-trifluoroacetate)] | < 100 |  | < 100 |
| CC/C(=C\c1ccccc1)[C@@H]1C[C@H]1NC1CC2(C1)CN(C(C)C(N)=O)C2 (stereo partly drawn) [Compound 30, 2-(6-(((1R,2S)-2-((E)-1-phenylbut-1-en-2-yl)cyclopropyl)amino)-2-azaspiro[3.3]heptan-2-yl)propanamide bis(2,2,2-trifluoroacetate)] | < 100 |  | < 100 |
